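1) Cells in 96-well plates. 2) Compound, 48 h, 5 concentrations. 3) Linear interpolation between surrounding doses. 4) Unreached endpoint = highest concentration. Abbreviation: GI50, concentration required for 50% inhibition of growth. TGI marks complete inhibition of growth.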
Experiments:
Assay in all cases: inhibition of tumour cell growth, NCI panel, 48 h
DU-145 prostate = system: DU-145 prostate
HCC-2998 colon = system: HCC-2998 colon
SF-268 CNS = system: SF-268 CNS
SNB-75 CNS = system: SNB-75 CNS
SN12C renal = system: SN12C renal
SK-MEL-5 melanoma = system: SK-MEL-5 melanoma
NCI-H23 lung = system: NCI-H23 lung
NCI-H460 lung = system: NCI-H460 lung
SR leukemia = system: SR leukemia
HCT-15 colon = system: HCT-15 colon
U251 CNS = system: U251 CNS
SK-OV-3 ovarian = system: SK-OV-3 ovarian
KM12 colon = system: KM12 colon
HOP-62 NSCLC = system: HOP-62 NSCLC
HCT-116 colon = system: HCT-116 colon
HL-60(TB) leukemia = system: HL-60(TB) leukemia
HS 578T breast = system: HS 578T breast
A549 NSCLC = system: A549 NSCLC
SW-620 colon = system: SW-620 colon
A498 renal = system: A498 renal
IGROV1 ovarian = system: IGROV1 ovarian
UO-31 renal = system: UO-31 renal
BT-549 breast = system: BT-549 breast
MCF7 breast = system: MCF7 breast
ACHN renal = system: ACHN renal
PC-3 prostate = system: PC-3 prostate
MDA-MB-231 breast = system: MDA-MB-231 breast
CAKI-1 renal = system: CAKI-1 renal
COLO 205 colon = system: COLO 205 colon
786-0 renal = system: 786-0 renal
LOX IMVI melanoma = system: LOX IMVI melanoma
HT29 colon = system: HT29 colon
HOP-92 NSCLC = system: HOP-92 NSCLC
OVCAR-5 ovarian = system: OVCAR-5 ovarian
RXF 393 renal = system: RXF 393 renal
MDA-MB-468 breast = system: MDA-MB-468 breast
MDA-MB-435 = system: MDA-MB-435
SK-MEL-2 melanoma = system: SK-MEL-2 melanoma
OVCAR-8 ovarian = system: OVCAR-8 ovarian
OVCAR-4 ovarian = system: OVCAR-4 ovarian
NCI-H522 lung = system: NCI-H522 lung
MOLT-4 leukemia = system: MOLT-4 leukemia
MALME-3M melanoma = system: MALME-3M melanoma
T-47D breast = system: T-47D breast
M14 melanoma = system: M14 melanoma
OVCAR-3 ovarian = system: OVCAR-3 ovarian
SNB-19 CNS = system: SNB-19 CNS
NCI/ADR-RES ovarian = system: NCI/ADR-RES ovarian
EKVX NSCLC = system: EKVX NSCLC
UACC-62 melanoma = system: UACC-62 melanoma
K-562 leukemia = system: K-562 leukemia
RPMI-8226 leukemia = system: RPMI-8226 leukemia
SF-539 CNS = system: SF-539 CNS
SF-295 CNS = system: SF-295 CNS
TK-10 renal = system: TK-10 renal
SK-MEL-28 melanoma = system: SK-MEL-28 melanoma
NCI-H226 lung = system: NCI-H226 lung
CCRF-CEM leukemia = system: CCRF-CEM leukemia
UACC-257 melanoma = system: UACC-257 melanoma

For `COc1ccc(NC(=O)Cn2c(/C=C/c3cccc(Br)c3)nc3ccccc3c2=O)cc1`, the GI50 (DU-145 prostate) was 13.5 µM, the TGI (DU-145 prostate) was over 36 µM and the GI50 (HCC-2998 colon) was over 36 µM. The TGI (HCC-2998 colon) was over 36 µM, the GI50 (SF-268 CNS) was 13.9 µM and the TGI (SF-268 CNS) was over 36 µM. It also gave a GI50 (SNB-75 CNS) of 0.801 µM, a TGI (SNB-75 CNS) of 3.27 µM and a GI50 (SN12C renal) of 14.8 µM. It also gave a TGI (SN12C renal) of over 36 µM, a GI50 (SK-MEL-5 melanoma) of over 36 µM and a TGI (SK-MEL-5 melanoma) of over 36 µM. For the same molecule, the GI50 (NCI-H23 lung) was 10.5 µM, the TGI (NCI-H23 lung) was over 36 µM and the GI50 (NCI-H460 lung) was 15.7 µM. For the same molecule, the TGI (NCI-H460 lung) was over 36 µM, the GI50 (SR leukemia) was 1.06 µM and the TGI (SR leukemia) was over 36 µM. For the same molecule, the GI50 (HCT-15 colon) was over 36 µM, the TGI (HCT-15 colon) was over 36 µM and the GI50 (U251 CNS) was 4.68 µM. The TGI (U251 CNS) was 13.5 µM, the GI50 (SK-OV-3 ovarian) was 7.25 µM and the TGI (SK-OV-3 ovarian) was 27.5 µM. The GI50 (KM12 colon) was over 36 µM, the TGI (KM12 colon) was over 36 µM and the GI50 (HOP-62 NSCLC) was 6.47 µM. The TGI (HOP-62 NSCLC) was 21 µM, the GI50 (HCT-116 colon) was 5.67 µM and the TGI (HCT-116 colon) was over 36 µM. The GI50 (HL-60(TB) leukemia) was over 36 µM, the TGI (HL-60(TB) leukemia) was over 36 µM and the GI50 (HS 578T breast) was 2.73 µM. It also gave a TGI (HS 578T breast) of 30.8 µM, a GI50 (A549 NSCLC) of 11.4 µM and a TGI (A549 NSCLC) of over 36 µM. It also gave a GI50 (SW-620 colon) of over 36 µM, a TGI (SW-620 colon) of over 36 µM and a GI50 (A498 renal) of 9.71 µM. It also gave a TGI (A498 renal) of 32.5 µM, a GI50 (IGROV1 ovarian) of over 36 µM and a TGI (IGROV1 ovarian) of over 36 µM. For the same molecule, the GI50 (UO-31 renal) was 4.41 µM, the TGI (UO-31 renal) was 15.4 µM and the GI50 (BT-549 breast) was 3.62 µM. It also gave a TGI (BT-549 breast) of over 36 µM, a GI50 (MCF7 breast) of 8.56 µM and a TGI (MCF7 breast) of over 36 µM. It also gave a GI50 (ACHN renal) of 1.75 µM, a TGI (ACHN renal) of 12.2 µM and a GI50 (PC-3 prostate) of over 36 µM. The TGI (PC-3 prostate) was over 36 µM, the GI50 (MDA-MB-231 breast) was 1.93 µM and the TGI (MDA-MB-231 breast) was 8.8 µM. The GI50 (CAKI-1 renal) was 14 µM, the TGI (CAKI-1 renal) was over 36 µM and the GI50 (COLO 205 colon) was over 36 µM. For the same molecule, the TGI (COLO 205 colon) was over 36 µM, the GI50 (786-0 renal) was 4.9 µM and the TGI (786-0 renal) was 14.8 µM. The GI50 (LOX IMVI melanoma) was 3.02 µM, the TGI (LOX IMVI melanoma) was over 36 µM and the GI50 (HT29 colon) was over 36 µM. The TGI (HT29 colon) was over 36 µM, the GI50 (HOP-92 NSCLC) was 8.66 µM and the TGI (HOP-92 NSCLC) was 32.6 µM. The GI50 (OVCAR-5 ovarian) was 15.6 µM, the TGI (OVCAR-5 ovarian) was over 36 µM and the GI50 (RXF 393 renal) was 4.39 µM. It also gave a TGI (RXF 393 renal) of 17.6 µM, a GI50 (MDA-MB-468 breast) of 6.25 µM and a TGI (MDA-MB-468 breast) of over 36 µM. The GI50 (MDA-MB-435) was over 36 µM, the TGI (MDA-MB-435) was over 36 µM and the GI50 (SK-MEL-2 melanoma) was over 36 µM. For the same molecule, the TGI (SK-MEL-2 melanoma) was over 36 µM, the GI50 (OVCAR-8 ovarian) was 10.5 µM and the TGI (OVCAR-8 ovarian) was over 36 µM. It also gave a GI50 (OVCAR-4 ovarian) of 2.17 µM, a TGI (OVCAR-4 ovarian) of 9.94 µM and a GI50 (NCI-H522 lung) of 17.6 µM. It also gave a TGI (NCI-H522 lung) of over 36 µM, a GI50 (MOLT-4 leukemia) of over 36 µM and a TGI (MOLT-4 leukemia) of over 36 µM. It also gave a GI50 (MALME-3M melanoma) of 6.56 µM, a TGI (MALME-3M melanoma) of 27 µM and a GI50 (T-47D breast) of over 36 µM. For the same molecule, the TGI (T-47D breast) was over 36 µM, the GI50 (M14 melanoma) was 31.8 µM and the TGI (M14 melanoma) was over 36 µM. The GI50 (OVCAR-3 ovarian) was 10.6 µM, the TGI (OVCAR-3 ovarian) was over 36 µM and the GI50 (SNB-19 CNS) was 11.4 µM. It also gave a TGI (SNB-19 CNS) of over 36 µM, a GI50 (NCI/ADR-RES ovarian) of 7.1 µM and a TGI (NCI/ADR-RES ovarian) of over 36 µM. It also gave a GI50 (EKVX NSCLC) of over 36 µM, a TGI (EKVX NSCLC) of over 36 µM and a GI50 (UACC-62 melanoma) of over 36 µM. It also gave a TGI (UACC-62 melanoma) of over 36 µM, a GI50 (K-562 leukemia) of over 36 µM and a TGI (K-562 leukemia) of over 36 µM. The GI50 (RPMI-8226 leukemia) was over 36 µM, the TGI (RPMI-8226 leukemia) was over 36 µM and the GI50 (SF-539 CNS) was 2.94 µM. The TGI (SF-539 CNS) was 8.06 µM, the GI50 (SF-295 CNS) was 6.79 µM and the TGI (SF-295 CNS) was over 36 µM. It also gave a GI50 (TK-10 renal) of 5.4 µM, a TGI (TK-10 renal) of 13.4 µM and a GI50 (SK-MEL-28 melanoma) of over 36 µM. It also gave a TGI (SK-MEL-28 melanoma) of over 36 µM, a GI50 (NCI-H226 lung) of 1.69 µM and a TGI (NCI-H226 lung) of 9.64 µM. The GI50 (CCRF-CEM leukemia) was over 36 µM, the TGI (CCRF-CEM leukemia) was over 36 µM and the GI50 (UACC-257 melanoma) was over 36 µM. It also gave a TGI (UACC-257 melanoma) of over 36 µM.

— PubChem BioAssay (NCI)
